Experimental findings from ChEMBL document CHEMBL3272078, “Stereochemical analogs of a muscarinic, ganglionic stimulant. 3. 2,3-Substituted bicyclo(2.2.1)hept-5-enes and -heptanes related to 4-(N-(3-chlorophenyl)carbamoyloxy)-2-butynyltrimethylammonium chloride (McN-A-343)” (J Med Chem, 1976) are described below.

Common to all, as to format: functional, organism-based
The test system of assay [1] is Felis catus. As to the kind of experiment: Ganglion-stimulant activity in iv dosed cat assessed as depressor response.
In assay [2] the test system is Felis catus. Nature of the assay: Ganglion-stimulant activity in cat assessed as pressor response up to 1000 ug/kg, iv.
The test system of assay [3] is Felis catus. Nature of the assay: Inhibition of McN-A-343-induced pressor response in iv dosed cat.

Calls of active or inactive are those of the source. No cut-off for these calls is given here.

`C[N+](C)(C)C[C@@H]1[C@H](COC(=O)Nc2ccc(Cl)cc2)[C@H]2C=C[C@H]1C2`: the outcome in the assay with Felis catus [1] and in the assay with Felis catus [2] was inactive. Also, the inhibition entry in the assay with Felis catus [3] was “inactive”.

For the compound `C[N+](C)(C)CC#CCOC(=O)Nc1cccc(Cl)c1`, the outcome in the assay with Felis catus [2] was Active.

Take `C[N+](C)(C)C[C@H]1[C@H](COC(=O)Nc2ccc(Cl)cc2)[C@H]2C=C[C@H]1C2`: the result in the assay with Felis catus [1] and in the assay with Felis catus [2] was inactive. Also, in the assay on Felis catus [3], the inhibition entry is “inactive”.

Consider `C[N+](C)(C)C[C@H]1[C@@H](COC(=O)Nc2ccc(Cl)cc2)[C@H]2C=C[C@H]1C2`, for which the result in the assay with Felis catus [1] and in the assay with Felis catus [2] was inactive. Moreover, the inhibition result in the assay on Felis catus [3] was “inactive”.

For the compound `C[N+](C)(C)C[C@@H]1[C@@H](COC(=O)Nc2ccc(Cl)cc2)[C@H]2C=C[C@H]1C2`, the result with Felis catus [1] and with Felis catus [2] was inactive. The inhibition entry with Felis catus [3] was “inactive”.

Consider `C[N+](C)(C)C[C@H]1[C@H]2CC[C@@H](C2)[C@@H]1COC(=O)Nc1ccc(Cl)cc1`, for which the outcome in the assay with Felis catus [1] and with Felis catus [2] was inactive. Besides, in the assay on Felis catus [3], the inhibition entry is “inactive”.

Turning to `C[N+](C)(C)C[C@@H]1[C@H]2CC[C@@H](C2)[C@@H]1COC(=O)Nc1ccc(Cl)cc1`, the result with Felis catus [1] and with Felis catus [2] was inactive. Also, in the assay with Felis catus [3], the inhibition entry is “inactive”.

In the case of `C[N+](C)(C)C[C@H]1[C@H]2CC[C@@H](C2)[C@H]1COC(=O)Nc1ccc(Cl)cc1`, the result in the assay with Felis catus [1] and with Felis catus [2] was inactive. Further, the inhibition result in the assay with Felis catus [3] is “inactive”.

Turning to `C[N+](C)(C)C[C@@H]1[C@H]2CC[C@@H](C2)[C@H]1COC(=O)Nc1ccc(Cl)cc1`, the result with Felis catus [1] and in the assay on Felis catus [2] was inactive. Moreover, in the assay on Felis catus [3], the inhibition entry is “inactive”.
